According to patent US8034810B2, “Arylsulfonamido-substituted hydroxamic acid derivatives” (Novartis AG, priority 1999, dated 2011):
Counter-ions that a name gives are not always drawn.

biological target: T1, MT1-MMP (Homo sapiens, UniProt P50281); experiment: In vitro inhibition of MT1-MMP, fluorogenic peptide substrate; type: biochemical; conditions: catalytic domain of human MT1-MMP; substrate 10 μM; 37° C.
T1 construct: made in house
Experimental: The inhibitory activities of compounds of formula I on MT1-MMP, MMP1 (collagenase 1) and MMP2 (gelatinase A) can be determined as follows:
Stock solutions of substrate (MCA-Pro-Leu-Gly-Leu-Dpa-Ala-Arg-NH2, Knight, C. G., Willenbrock, F., Murphy, G., A novel coumarin-labelled peptide for sensitive continuous assays of the matrix metalloproteinases, FEBS lett., 296, 263-266, (1992)), are prepared in 100% DMSO at a concentration 1.0 mM. Stock solutions of inhibitors are prepared in 100% DMSO. The inhibitor is diluted into the assays from a solution in 100% DMSO, and controls substitute an equal volume of DMSO so that the final DMSO concentration from inhibitor and substrate dilutions in all assays is 6.0%. Assays are performed in assay buffer (150 mM NaCl, 10 mM CaCl2, 50 mM Tris-Cl pH7.5, 0.05% Brij-35) containing 6.0% DMSO once the substrate and inhibitor are diluted into it. The substrate concentration used in the assays is 10 μM. The test is carried out at 37° C. The fluorescence changes are monitored using an excitation wavelength of 320 nm and an emission wavelength of […]. The reaction mixture is added in duplicate to appropriate wells of a 96 well microfluor plate. The reaction mixture is preincubated with the inhibitor for 30 min, the reaction is started by the addition of MMP enzyme and the fluorescence intensity is measured for 10 min. A time point that is on a linear part of the curve is chosen to determine the activity. The inhibition results are expressed as the inhibitor concentrations that produced 50% inhibition (IC50) of the activity in the control (non-inhibited) reaction. In this test, the compounds of the formula I and their pharmacologically acceptable salts have an inhibiting concentration IC50 [μmol/litre] of 0.0001 and 0.030, usually of 0.0002 to 0.010, for MMP2 and an inhibiting concentration IC50 [μmol/litre] of 0.0005 and 0.125, usually of 0.001 to 0.05, for MT1-MMP.
Plasmid: The catalytic domain of the cDNA fragment encoding a full length of human MT1-MMP gene [from Prof. Motoharu Seiki, Institute of Medical Science, The University of Tokyo; Sato, H., Takino, T., Okada, Y., Cao, J., Shinagawa, A., Yamamoto, E. and Seiki, M. Nature (London), 370:61-65, 1994)] is amplified by polymerase chain reaction (PCR). […] The resulting PCR product of a 519-bp fragment is subcloned between the NdeI and BamHI unique sites of pET11a (Stratagene). The sequence of catalytic domain of MT1-MMP (CD-MT1-MMP) is verified by the ABI PRIS™ dye terminator cycle sequencing kit with the ABI PRISM™ 377 DNA sequencer (Perkin Elmer).
Expression and Purification: The subcloned CD-MT1-MMP is used to transfect E. coli strain BL21-[DE3] (Hanahan, D. J. Mol. Biol. 1983; 166(4):557-80) and expressed as insoluble inclusion body materials. Transfectants are grown at 37° C. in 50 ml Luria-Bertani (LB) medium in the presence of 50 µg/ml ampicillin to a cell density of OD600=0.6-1.0, and CD-MT1-MMP production is induced with 1 mM isopropyl-1-D-galactopyranoside (IPTG). After treatments with 5 mg/ml lysozyme and 10 μg/ml DNase I, the inclusion bodies are prepared from the harvested cells by using the detergent buffer containing 0.2 M NaCl, 1% w/v deoxycholic acid, and 1% v/v Nonidet P40. The solubilization is achieved by resuspending the inclusion bodies in the solubilization buffer composed of 6 M urea, 100 mM 2-mercaptoethanol, and 20 mM Tris-Cl, pH8.5. The enzyme is purified and renaturated using 10 ml of a Q-Sepharose (Amersham Pharmacia Biotech) column equilibrated with 5 mM CaCl2, 0.02% v/v NaN3, in 20 mM Tris-Cl pH7.5. After washing with three volumes of the same buffer, the bound proteins are eluted with two volumes of a linear gradient of 0.5-1.0 M NaCl. The collected fractions (1 ml each) are dialyzed for 6 h in equilibrated buffer. Superdex G200 column (1×15 cm) (Amersham Pharmacia) is equilibrated in 20 mM Tris-Cl, pH 7.5, 5 mM CaCl2, 0.02% NaN3. The desalted sample is applied to Superdex G200 column and chromatographed at 0.5 ml/min. […]

| Compound | IC50 [nM] |
| --- | --- |
| 2-[(Cyclopropylmethoxy-benzenesulfonyl)-(4-[1,2,4]triazol-1-yl-benzyl)-amino]-N-hydroxyacetamide-hydrochloride salt [Example 82b] | 0.6 |
| O=C(CN(Cc1ccc(-n2cncn2)cc1)S(=O)(=O)c1ccc(OCCC2CC2)cc1)NO [Example 82a] | 1.8 |
| O=C(CN(Cc1ccc(-n2cncn2)cc1)S(=O)(=O)c1ccc(OCc2ccoc2)cc1)NO [Example 82c] | 10.7 |
| C=CCCOc1ccc(S(=O)(=O)N(CC(=O)NO)Cc2cccc(F)n2)cc1 [Example 83a, 2-([4-But-3-enyloxy-benzenesulfonyl]-(6-fluoro-pyridine-2-yl)methyl-amino)-N-hydroxyacetamide] | 0.3 |

More lines, now with the values ahead:

| IC50 [nM] | Compound |
| --- | --- |
| 5.2 | COc1ccc(CN(CC(=O)NO)S(=O)(=O)c2ccc(OCCCCl)cc2)cc1 [Example 68, 2-{[4-(3-chloro-propoxy)-benzenesulfonyl]-(4-methoxy-benzyl)amino}-N-hydroxy-acetamide] |
| 1.4 | C#CCOc1ccc(S(=O)(=O)N(CC(=O)NO)Cc2ccc(OC)cc2)cc1 [Example 75, [(4-methoxy-benzyl)-[4-prop-2-ynyloxy-benzenesulfonyl]-amino]-N-hydroxy-acetamide] |
| 0.7 | C=CCCOc1ccc(S(=O)(=O)N(CC(=O)NO)Cc2ccc(-n3cncn3)cc2)cc1 [Example 79, 2-[(4-but-3-enyloxy-benzenesulfonyl)-(4-[1,2,4]triazol-1-yl-benzyl)-amino]-N-hydroxy-acetamide-hydrochloride salt] |
| 1.2 | C=CCCOc1ccc(S(=O)(=O)N(CC(=O)NO)Cc2ccc(-n3ccnc3)cc2)cc1 [Example 80, 2-[(4-But-3-enyloxy-benzenesulfonyl)-(4-imidazol-1-yl-benzyl)-amino]-N-hydroxy-acetamide-hydrochloride] |
| 4.6 | C=CCCOc1ccc(S(=O)(=O)N(CC(=O)NO)Cc2ccc(N3CCOCC3)cc2)cc1 [Example 81, 2-[(4-But-3-enyloxy-benzenesulfonyl)-(4-morpholin-4-yl-benzyl)-amino]-N-hydroxy-acetamide-hydrochloride] |
| 20.4 | C=CCCOc1ccc(S(=O)(=O)N(CC(=O)NO)Cc2ccc(N3CCCC3)cc2)cc1 [Example 84a, 2-[(4-But-3-enyloxy-benzenesulfonyl)-(4-(pyrrolidin-1-yl)-benzyl)-amino]-N-hydroxyacetamide-hydrochloride] |
